Source: patent publication US5608084A, “Lactones with antioxidising and hypolipidaemic activity useful in the therapy of the atherosclerosis” (priority 1994, dated 1997)
Read-outs that look alike come from different tables or passages of the source.

What was measured:
LDL [1] = assay: Antioxidant activity: latency period of copper-induced LDL oxidation (TBARS method); assay type: biochemical, human; details: 10 μM; LDL oxidized with 5 μM cupric sulfate at 37° C.
Source text: The determination of the melting point has been carried out by means of a capillary melting point apparatus Electrothermal, without any correction. The I.R. spectrum has been obtained by means of a Perkin-Elmer rood. 963/G spectrophotometer generally, when not otherwise specified, preparing the specimen in potassium bromide and recording the spectrum between […]. The ^1 H-NMR spectrum has been recorded at room temperature with a 200 MHz Varian Gemini spectrometer, in the solvents cited, by using tetramethylsilane as internal standard; the resonances of the signals have been expressed in p.p.m.. The ^13 C-NMR spectrum has been carried out at 50.3 MHz with a Varian Gemini 200 spectrometer by using tetramethylsilane as internal standard and as solvents those described in the experimental section. The mass spectrum has been recorded by using a VG 7070E mass spectrometer, at a 70 eV ionization voltage and with a 6 Kvolt acceleration voltage. The chromatographies on silica gel have been carried out by using 60 F254 silica gel ([…]--Merck) with the eluents cited in the examples, according to the method described by Clark Still W. et al. in J. Org. Chem., 43, 2923, (1978). The pharmacological activity of the lactones of formula I object of the present invention has been determined by means of a series of in vitro tests considered predictive of the antioxidant and hypolipidaemic properties. The antioxidant activity has been evaluated through the capability of some lactones of formula I to prevent and/or delay the oxidative modification of the lipoproteins (LDL), caused by a chemical method by incubating native LDL with cupric ions, according to the method described by Steinbrecher U. P. in J. Biol. Chem., 262, 3603-3608, (1987). The evaluation of the oxidation degree of the LDL through the monitoring of the concentration of aldehydes derived from the degradation of the lipidic peroxides and the observation of the modifications of the B-100 apolipoprotein represent the used experimental approach. The antioxidant activity of the lactones has been expressed in terms of duration of the latency period that represents a parameter of the resistance to the oxidation of the LDL. The LDL have been isolated from the human plasma obtained from blood collected, in the presence of EDTA, from healty volunteers fasting from 8 hours according to the method described by Havel H. in J. Clin. Invest., 34, 1345-1353, (1955). The solution, dialyzed in Visking-Serva dialysis tubes at 4° C. for 72 hours in phosphate buffer (PBS) added with EDTA (0.24 mM), has been filtered through a membrane with 0.45μ porosity (Millex HV Filters) and the proteic concentration has been determined according to the method described by Lowry O. et al. in J. Biol. Chem., 193, 265-275, (1951). The solution has been diluted with PBS-EDTA at a concentration of 500 μg protein/ml and the obtained LDL have been incubated at 42° C. for 45 minutes in presence of the lactones solubilized in ethanol (1.7 μl/ml LDL). At the end of the incubation the solutions have been placed on ice for 45 minutes and dialyzed at 4° C. for 36 hours in PBS. The oxidation of the LDL has been carried out with 5 μM cupric sulfate at 37° C. and stopped at the experimental times by cooling at 4° C. and adding 0.24 mM of EDTA. The solutions of LDL have been kept at 4° C. and sheltered from light during the experimental procedure. The oxidation degree of the LDL has been checked by spectrophotometric determination (λ=535 nm--Perkin Elmer spectrophotometer mod. Lambda 1) of the content of the aldehydes of degradation reactive to the thiobarbituric acid using as standard malondialdehyde (MDA), according to the TBARS method, described in Methods in Enzymology, vol. 52, (1978).
FIGS. 1A-1C show the results of spectrophotometric readings expressed as ng of MDA/mg LDL protein. […]

HepG2 = assay: Incorporation of 14C-acetate in the lipidic classes in HepG2 cells (hypolipidaemic activity); assay type: cell-based, human; details: for Incorporation of 14C-acetate: Cholesterol / Incorporation of 14C-acetate: Esters of Cholesterol / Incorporation of 14C-acetate: Fatty acids / Incorporation of 14C-acetate: Phospholipids / Incorporation of 14C-acetate: Triglycerides: per culture plate; for inhibition at 1 µM / inhibition at 10 µM: Homo sapiens, HepG2
Description: The hypolipidaemic activity of some lactones of general formula I has been evaluated in vitro by testing their influence on the synthesis of the cell lipids like cholesterol, fatty acids, triglycerides, phospholipids and esters of the cholesterol, described by Barnhard J. W. in Amer. J. Cardiol., 62, 52B-56B, (1988).
The synthesis of the lipids has been studied by incubating cells coming from a human hepatocarcinoma (HepG2-American Type Culture Collection) in presence of ^14 C-acetate (Amersham) and by measuring the incorporation of the radioactive precursor in the main lipidic classes by means of chromatographic separation on silica gel (Merck F254), according to the method described by Skipski V. P. et al. in Biochem. Biophys. Acta, 106, 386-396, (1965) and by means of scintillographic dosage with β-counter Beckman scintillator, according to the method reported by Gherardi E. and Calandra S. in Lipids, 15, 108-112, (1980).
The data reported in tables 4 and 5 refer to the incorporation of ^14 C-acetate in the various lipidic classes, expressed as radioactivity in count per minute (cpm) for culture plate, for some lactones, in comparison with the probucol and the gemfibrozil, used as positive controls and with the solvent ethanol, used as negative control.
The percents in brackets express the lowering of the ^14 C-acetate in the various lipidic classes referred to the control, i.e. to the physiological solution. […] The confluence cells have been exposed to the products tested for 24 hours; at the end of the incubation the monolayer has been solubilized and the optical density of the lysate at λ260 nm has been measured. The value of the absorbance is direct function of the amount of the macromolecules present and therefore indirectly of the number of the cells.

LDL [2] = details: in vitro, LDL incubated with antioxidizer; cited from earlier work
[3] = system: Watanabe rabbits, suffering from familial hypercholesterolaemia; details: cited from earlier work

SMILES: CC(C)(Sc1cc(C(C)(C)C)c(O)c(C(C)(C)C)c1)Sc1cc(C(C)(C)C)c(O)c(C(C)(C)C)c1 [Probucol, reference compound]
- Latency period (LDL [1]): 82 min
- Incorporation of 14C-acetate: Cholesterol (HepG2; 1 μM): 14360 cpm
- Incorporation of 14C-acetate: Esters of Cholesterol (HepG2; 1 μM): 1887 cpm
- Incorporation of 14C-acetate: Fatty acids (HepG2; 1 μM): 429 cpm
- Incorporation of 14C-acetate: Phospholipids (HepG2; 1 μM): 173426 cpm
- Incorporation of 14C-acetate: Triglycerides (HepG2; 1 μM): 100202 cpm
- Incorporation of 14C-acetate: Cholesterol (HepG2; 10 μM): 11389 cpm
- Incorporation of 14C-acetate: Esters of Cholesterol (HepG2; 10 μM): 2635 cpm
- Incorporation of 14C-acetate: Fatty acids (HepG2; 10 μM): 394 cpm
- Incorporation of 14C-acetate: Phospholipids (HepG2; 10 μM): 173329 cpm
- Incorporation of 14C-acetate: Triglycerides (HepG2; 10 μM): 105097 cpm
- inhibition at 1 µM (HepG2; 1 μM, read-out: Incorporation of 14C-acetate: Cholesterol, percent referred to physiological solution): 55%
- inhibition at 1 µM (HepG2; 1 μM, read-out: Incorporation of 14C-acetate: Esters of Cholesterol, percent referred to physiological solution): 54%
- inhibition at 1 µM (HepG2; 1 μM, read-out: Incorporation of 14C-acetate: Fatty acids, percent referred to physiological solution): 36%
- inhibition at 1 µM (HepG2; 1 μM, read-out: Incorporation of 14C-acetate: Phospholipids, percent referred to physiological solution): 31%
- inhibition at 1 µM (HepG2; 1 μM, read-out: Incorporation of 14C-acetate: Triglycerides, percent referred to physiological solution): 8%
- inhibition at 10 µM (HepG2; 10 μM, read-out: Incorporation of 14C-acetate: Cholesterol, percent referred to physiological solution): 64%
- inhibition at 10 µM (HepG2; 10 μM, read-out: Incorporation of 14C-acetate: Esters of Cholesterol, percent referred to physiological solution): 35%
- inhibition at 10 µM (HepG2; 10 μM, read-out: Incorporation of 14C-acetate: Fatty acids, percent referred to physiological solution): 42%
- inhibition at 10 µM (HepG2; 10 μM, read-out: Incorporation of 14C-acetate: Phospholipids, percent referred to physiological solution): 31%
- inhibition at 10 µM (HepG2; 10 μM, read-out: Incorporation of 14C-acetate: Triglycerides, percent referred to physiological solution): 3%
- activity as regards the synthesis of the esters of the cholesterol (HepG2; summary of Table 4): 35-45%
- atherogenic potentialities of the LDL (LDL [2]): remarkably lowered
- LDL plasma levels [3]: does not substantially modify the LDL plasma levels
- atheromatous lesions [3]: lowers the atheromatous lesions
